According to patent publication US20230168255A1, “UNBLENDING OF TRANSCRIPTIONAL CONDENSATES IN HUMAN REPEAT EXPANSION DISEASE” (Max-Planck-Gesellschaft zur Förderung der Wissenschaften …, priority 2020, published 2023):

Columns and labels:
[1] = biological target: T1, Hoxd13 +7A IDR-Med1 IDR co-condensates (Homo sapiens, UniProt P35453, DUP65-71); assay: in vitro droplet assay, compound treatment of Hoxd13 IDR-Med1 IDR co-condensates; assay type: biochemical; settings: purified Hoxd13 +7A IDR-mCherry mixed with MED1 IDR-GFP; FIG. 3G-J, FIG. 8
T1 construct: His tag (from pET45b(+); purified on a His column); made in house; host or cells: E. coli BL21(DE3)
T1 sequence (P35453 with tags, fused parts or gaps DUP65-71): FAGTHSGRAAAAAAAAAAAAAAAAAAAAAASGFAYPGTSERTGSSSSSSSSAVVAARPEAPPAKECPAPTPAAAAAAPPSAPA
Experimental: (§1) For image analysis, droplets were first automatically thresholded in either the mEGFP or mCherry channel using Zen Blue (Version 3.0), and then filtered by size, pixel intensity, and pixel deviation. Mean fluorescence intensities, area, and diameter of these primary regions were measured on both channels. For quantification and data visualization (FIG. 1J, 2H, 3B-E, 3H-J, 6F, 6H, 60, 6Q), raw values for diameter, mean intensity, or area were plotted as indicated in figure legends using R-Studio and the Directlabels package.
(§2) For in vitro droplet formation, recombinant mCherry or mEGFP fusion proteins were measured for concentration, and then diluted or mixed to suitable final concentrations in storage buffer. For microscopy, these solutions were further diluted 1:2 in either 20% or 10% PEG-8000 in deionized water (w/v). 10 μL of this suspension was pipetted onto chambered coverslips, and immediately imaged using a LSM880 confocal microscope equipped with a 63×1.40 oil DIC objective and AiryScan detector. All images were acquired from within the solution interface, and performed before droplets settled onto the bottom of the coverslip, as described in (Sabari et al., 2018). For droplet assays using preformed GFP-Med1 condensates (FIG. 3E-F), GFPMed1 droplets were allowed to form for 30 minutes at room temperature in the presence of 10% PEG-8000, before proceeding with co-condensation assays. For compound treatments of cocondensates (FIG. 3G-J), small molecules [ATP (Jena Bioscience, NU-1010), Mitoxantrone dihydrochloride (Sigma M6545), (±)-α-lipoic acid (Sigma 62320), and lipoamide, (Medchemexpress HY-B1142)] were directly diluted into droplet mixtures with or without vehicle (DMSO, Sigma D2650) to the desired final concentrations.

[2] = test system: Hoxd13 puncta in limb bud cells; assay: 1,6-hexanediol treatment of limb bud cells, Hoxd13 immunofluorescence; assay type: cell-based, mouse; settings: 6% for 1 min; limb bud cells expressing +7A Hoxd13 (spdh) versus wt
Experimental: 1,6-hexanediol treatment: Isolated limb bud cells attached to fibronectin coated glass coverslips were treated with 6% or 0% hexanediol (Sigma, 240117) in 1 mL cell culture media for 1 minute at 37° C. After treatment, cells were washed with 1 mL of PBS, and immediately fixed in 4% paraformaldehyde in PBS for 10 min. Fixed cells were washed and then stored at 4° C. until processing for immunofluorescence and microscopy.
Isolated limb bud cells, Kelly cells, and SH-SY5Y cells attached to coated glass coverslips were fixed in 4% paraformaldehyde (PFA) (Sigma-Aldrich, P6148) in PBS for 10 min and stored at 4° C. in PBS or processed immediately. Cells were permeabilized in 0.1% Triton X-100 (Thermo Scientific, 85111) in PBS for 10 min at RT. […]
Hoxd13 puncta detected in fixed cell immunofluorescence (FIG. 4C-D) were analyzed using a similar workflow described above. Nuclear regions were automatically detected in the Zen Blue (Zeiss) software package using the DAPI counterstain signal. Puncta were segmented on morphology, and then filtered based on fluorescence intensity and circularity. […] Values for nuclear area, Hoxd13 puncta area, Hoxd13 puncta mean fluorescence intensity, and Hoxd13 puncta count were measured for 120 wild type cells, 143 1-6 HD treated wild type cells, 63 spdh cells, and 62 1-6 HD treated spdh cells.

[3] = test system: Hoxd13 +7A IDR-Med1 IDR co-condensates; assay: in vitro droplet assay, compound treatment of Hoxd13 IDR-Med1 IDR co-condensates; assay type: biochemical; settings: summary statement; TFs containing disease-mutations
Experimental: as §1, §2

Molecule	reblending of co-condensates (ratio of GFP and mCherry fluorescence in HOXD13 IDR-mCherry containing droplets) [1]	sensitivity of Hoxd13 puncta to 1,6-HD [2]	composition of heterotypic condensates formed by Cluster 1 TFs with transcriptional co-activators (co-activator and TF content) [3]
O=C(O)CCCCC1CCSS1 (racemic) [lipoic acid, (±)-α-lipoic acid]	failed to reblend		
OCCCCCCO [1,6-HD, 1,6-hexanediol]		considerably reduced sensitivity	
Nc1ncnc2c1ncn2[C@@H]1O[C@H](COP(=O)(O)OP(=O)(O)NP(=O)(O)O)[C@@H](O)[C@H]1O [APPNP, adenosine-5′-[(β,γ)-imido]triphosphate]	capable of reblending		effective
NC(=O)CCCCC1CCSS1 (stereo not shown) [lipoamide]	failed to reblend		
adenosine tri-phosphate [ATP]	reblended Hoxd13 +7A IDR-Med1 IDR co-condensates in a dose dependent manner		revert the compositional alteration
